We go through four compounds from paper PMC10934235, “Inhibitory Effects of the Polyphenols from the Root of Rhizophora apiculata Blume on Fatty Acid Synthase Activity and Human Colon Cancer Cells” (Molecules, 2024).

Each structure is given as a SMILES string. In brackets after ≈: the same amount, converted by molar mass. Like-named read-outs stand apart in the source and are kept apart here.

In test [1] the target is T1, chicken liver FAS (Gallus gallus, UniProt P12276).
T1 construct: The purification, storage, and application of the chicken liver FAS were conducted following established procedures; from tissue; host or cells: chicken liver (chickens from Huadu Broiler Corporation, Beijing)
Kind of test: FAS overall reaction, fast-binding inhibition (NADPH decrease at 340 nm). It counts as biochemical. Here is the method: (§1) The FAS employed in this study was sourced from chicken liver, given that the amino acid sequence of chicken FAS shares 63% identity with its human counterpart. The chickens were purchased from Huadu Broiler Corporation, Beijing, China. The purification, storage, and application of the chicken liver FAS were conducted following established procedures. Animal procedures adhered to the Guidelines for the Care and Use of Laboratory Animals as set forth by the Beijing Association for Laboratory Animal Science. […] Concentrations of the enzyme and substrates were determined through absorption measurements, with extinction coefficients being utilized as previously outlined.
(§2) The overall reaction of FAS and the β-ketoacyl reduction facilitated by KR (a functional domain of FAS) were assessed using an Amersham Pharmacia Ultrospec 4300 pro UV-Vis spectrophotometer (GE Healthcare China Company, Beijing, China) at 37 °C by monitoring the decrease of NADPH at 340 nm. The overall reaction mixture comprised potassium phosphate buffer (100 mM, pH 7.0), ethylenediaminetetraacetic acid (EDTA) (1 mM), 1,4-dithiothreitol (DTT) (1 mM), acetyl-CoA (6 µM), malonyl-CoA (12 µM), NADPH (37.5 µM), and chicken liver FAS (10 µg), with a total volume of 2.0 mL. For the KR reaction, the mixture included ethyl acetoacetate (40 mM), NADPH (35 µM), 1 mM of EDTA, and the enzyme (15 µg) in 100 mM of phosphate buffer at pH 7.0, with a total volume of 2.0 mL [41].
(§3) The extent of inhibition was quantified by determining the IC50 value through a plot of residual activity against varying inhibitor concentrations.

The target in test [2] is T2, KR (a functional domain of FAS) (Gallus gallus, UniProt P12276).
T2 construct: The purification, storage, and application of the chicken liver FAS were conducted following established procedures; from tissue; host or cells: chicken liver (chickens from Huadu Broiler Corporation, Beijing)
In words: KR reaction of FAS, fast-binding inhibition (ethyl acetoacetate, NADPH). It is filed as biochemical, chicken. On the procedure: as §1
The overall reaction of FAS and the β-ketoacyl reduction facilitated by KR (a functional domain of FAS) were assessed using an Amersham Pharmacia Ultrospec 4300 pro UV-Vis spectrophotometer (GE Healthcare China Company, Beijing, China) at 37 °C by monitoring the decrease of NADPH at 340 nm. The overall reaction mixture comprised potassium phosphate buffer (100 mM, pH 7.0), ethylenediaminetetraacetic acid (EDTA) (1 mM), 1,4-dithiothreitol (DTT) (1 mM), acetyl-CoA (6 µM), malonyl-CoA (12 µM), NADPH (37.5 µM), and chicken liver FAS (10 µg), with a total volume of 2.0 mL. […]
as §3

Test [3] concerns the target T1, chicken liver FAS. In words: Enzyme kinetics study, FAS overall reaction (double reciprocal plots). It is filed as biochemical. The settings on record: LR 0-15.0 μg/mL. On the procedure: as §2
(§4) Double reciprocal plots were generated for each inhibitor concentration to determine the competitive relationship between the variable substrate and inhibitor concentrations. This study focused on examining fast-binding inhibition.

The target in test [4] is T2, KR (a functional domain of FAS). In words: Enzyme kinetics study, KR reaction of FAS (double reciprocal plots). It counts as biochemical, chicken. The conditions noted are these: NADPH variable substrate, LR 0-15.0 μg/mL. On the procedure:
as §2, §4

Test [5] addresses T3, intracellular FAS activity in SW620 cells (Homo sapiens, UniProt P49327).
T3 construct: the cells were sonicated at 4 °C and centrifuged at 12,000 rpm for 15 min at 4 °C to obtain particle-free supernatants; endogenous in cells; host or cells: CaCo2, LoVo, SW620
Kind of test: Intracellular FAS activity assay. It is filed as cell-based. An excerpt:
(§5) The human colon cancer cell lines CaCo2, LoVo, and SW620 were purchased from the Type Culture Collection of the Chinese Academy of Sciences (Shanghai, China). The CaCo2 cell line, originating from a human colon adenocarcinoma isolated in the 1970s, undergoes processes of proliferation, confluency, and differentiation during growth. […] LoVo, another cell line isolated in 1971 from the large intestine of a person with grade IV Dukes C colorectal cancer, offers applications in cancer, toxicology, and immuno-oncology research. SW620 cells, obtained from the large intestine of a person Dukes C colorectal cancer patient, are valuable resources for cancer and toxicology investigations. Cells were grown in Dulbecco’s Modified Eagle Medium (DMEM) supplemented with 10% fetal bovine serum (FBS) and were maintained in a humidified atmosphere containing 95% air and 5% CO2 at 37 °C.
(§6) Cells were exposed to LR for 24 h, followed by collection through trypsinization, centrifugation, triple washing, and resuspension in cold PBS. Subsequently, the cells were sonicated at 4 °C and centrifuged at 12,000 rpm for 15 min at 4 °C to obtain particle-free supernatants. The intracellular FAS activity was assessed spectrophotometrically by measuring the reduction in absorbance at 340 nm due to the oxidation of NADPH. A total volume of 500 µL of buffer comprising 50 µL of particle-free supernatant, 25 mM of KH2PO4-K2HPO4 buffer, 0.25 mM of EDTA, 0.25 mM of dithiothreitol, 30 µM of acetyl-CoA, and 350 µM of NADPH (pH 7.0) was monitored at 340 nm for 1 min to establish baseline NADPH oxidation. Following the addition of […] of malonyl-CoA, the reaction was further monitored for 1 min to determine FAS-dependent NADPH oxidation.

The target in test [6] is T4, intracellular FAS activity in LoVo cells (Homo sapiens, UniProt P49327).
T4 construct: the cells were sonicated at 4 °C and centrifuged at 12,000 rpm for 15 min at 4 °C to obtain particle-free supernatants; endogenous in cells; host or cells: CaCo2, LoVo, SW620
In words: Intracellular FAS activity assay. It is filed as cell-based.
Source text: as §5, §6

Test [7] has as its target T5, intracellular FAS activity in CaCo2 cells (Homo sapiens, UniProt P49327).
T5 construct: the cells were sonicated at 4 °C and centrifuged at 12,000 rpm for 15 min at 4 °C to obtain particle-free supernatants; endogenous in cells; host or cells: CaCo2, LoVo, SW620
Kind of test: Intracellular FAS activity assay. It is filed as cell-based. The settings on record: LR 60 µg/mL, 24 h.
Source text: as §5, §6

The next test concerns SW620 cells. In words: Cell viability, MTT assay. It is filed as cell-based, human.
Source text: as §5
(§7) LR was examined to evaluate its inhibition on the proliferation of CaCo2, LoVo, and SW620 cells. CaCo2, LoVo, and SW620 cells were grown in 96-well plates until reaching confluence and were treated with either DMSO (1:1000) or increasing doses of LR for 24 h at 37 °C. Following this, the cell medium was replaced with fresh medium containing 500 µg/mL MTT. After a 4-h incubation at 37 °C, the plates were decanted, and 150 µL of DMSO was added to dissolve the formazan crystals. Subsequently, the plate was analyzed using a microplate spectrophotometer (Multiskan, MK3) (Thermo Fisher Scientific Inc., Waltham, MA, USA) at a wavelength of 492 nm. Each experiment was conducted five times on three separate occasions.
A general note: Tetrazolium dyes change colour on reduction, which living cells bring about.

The test system of the next test is CaCo2 cells. In words: Cell viability, MTT assay. It counts as cell-based, human.
Source text: as §5, §7

Another test has as its system LoVo cells. In words: Cell viability, MTT assay. It counts as cell-based, human. The conditions noted are these: 24 h.
Source text: as §5, §7

[8] abbreviates: fast-binding inhibition, 37 °C, mean ± SD, three experiments.
[9] abbreviates: fast-binding inhibition, 37 °C, mean ± SD, three experiments, read-out: FAS Inhibitory Activity IC50 (converted).
Setting [10] is: LR 25 μg/mL + palmitic acid 100 μM, 24 h, versus LR alone.

T1 sequence (P12276 whole entry): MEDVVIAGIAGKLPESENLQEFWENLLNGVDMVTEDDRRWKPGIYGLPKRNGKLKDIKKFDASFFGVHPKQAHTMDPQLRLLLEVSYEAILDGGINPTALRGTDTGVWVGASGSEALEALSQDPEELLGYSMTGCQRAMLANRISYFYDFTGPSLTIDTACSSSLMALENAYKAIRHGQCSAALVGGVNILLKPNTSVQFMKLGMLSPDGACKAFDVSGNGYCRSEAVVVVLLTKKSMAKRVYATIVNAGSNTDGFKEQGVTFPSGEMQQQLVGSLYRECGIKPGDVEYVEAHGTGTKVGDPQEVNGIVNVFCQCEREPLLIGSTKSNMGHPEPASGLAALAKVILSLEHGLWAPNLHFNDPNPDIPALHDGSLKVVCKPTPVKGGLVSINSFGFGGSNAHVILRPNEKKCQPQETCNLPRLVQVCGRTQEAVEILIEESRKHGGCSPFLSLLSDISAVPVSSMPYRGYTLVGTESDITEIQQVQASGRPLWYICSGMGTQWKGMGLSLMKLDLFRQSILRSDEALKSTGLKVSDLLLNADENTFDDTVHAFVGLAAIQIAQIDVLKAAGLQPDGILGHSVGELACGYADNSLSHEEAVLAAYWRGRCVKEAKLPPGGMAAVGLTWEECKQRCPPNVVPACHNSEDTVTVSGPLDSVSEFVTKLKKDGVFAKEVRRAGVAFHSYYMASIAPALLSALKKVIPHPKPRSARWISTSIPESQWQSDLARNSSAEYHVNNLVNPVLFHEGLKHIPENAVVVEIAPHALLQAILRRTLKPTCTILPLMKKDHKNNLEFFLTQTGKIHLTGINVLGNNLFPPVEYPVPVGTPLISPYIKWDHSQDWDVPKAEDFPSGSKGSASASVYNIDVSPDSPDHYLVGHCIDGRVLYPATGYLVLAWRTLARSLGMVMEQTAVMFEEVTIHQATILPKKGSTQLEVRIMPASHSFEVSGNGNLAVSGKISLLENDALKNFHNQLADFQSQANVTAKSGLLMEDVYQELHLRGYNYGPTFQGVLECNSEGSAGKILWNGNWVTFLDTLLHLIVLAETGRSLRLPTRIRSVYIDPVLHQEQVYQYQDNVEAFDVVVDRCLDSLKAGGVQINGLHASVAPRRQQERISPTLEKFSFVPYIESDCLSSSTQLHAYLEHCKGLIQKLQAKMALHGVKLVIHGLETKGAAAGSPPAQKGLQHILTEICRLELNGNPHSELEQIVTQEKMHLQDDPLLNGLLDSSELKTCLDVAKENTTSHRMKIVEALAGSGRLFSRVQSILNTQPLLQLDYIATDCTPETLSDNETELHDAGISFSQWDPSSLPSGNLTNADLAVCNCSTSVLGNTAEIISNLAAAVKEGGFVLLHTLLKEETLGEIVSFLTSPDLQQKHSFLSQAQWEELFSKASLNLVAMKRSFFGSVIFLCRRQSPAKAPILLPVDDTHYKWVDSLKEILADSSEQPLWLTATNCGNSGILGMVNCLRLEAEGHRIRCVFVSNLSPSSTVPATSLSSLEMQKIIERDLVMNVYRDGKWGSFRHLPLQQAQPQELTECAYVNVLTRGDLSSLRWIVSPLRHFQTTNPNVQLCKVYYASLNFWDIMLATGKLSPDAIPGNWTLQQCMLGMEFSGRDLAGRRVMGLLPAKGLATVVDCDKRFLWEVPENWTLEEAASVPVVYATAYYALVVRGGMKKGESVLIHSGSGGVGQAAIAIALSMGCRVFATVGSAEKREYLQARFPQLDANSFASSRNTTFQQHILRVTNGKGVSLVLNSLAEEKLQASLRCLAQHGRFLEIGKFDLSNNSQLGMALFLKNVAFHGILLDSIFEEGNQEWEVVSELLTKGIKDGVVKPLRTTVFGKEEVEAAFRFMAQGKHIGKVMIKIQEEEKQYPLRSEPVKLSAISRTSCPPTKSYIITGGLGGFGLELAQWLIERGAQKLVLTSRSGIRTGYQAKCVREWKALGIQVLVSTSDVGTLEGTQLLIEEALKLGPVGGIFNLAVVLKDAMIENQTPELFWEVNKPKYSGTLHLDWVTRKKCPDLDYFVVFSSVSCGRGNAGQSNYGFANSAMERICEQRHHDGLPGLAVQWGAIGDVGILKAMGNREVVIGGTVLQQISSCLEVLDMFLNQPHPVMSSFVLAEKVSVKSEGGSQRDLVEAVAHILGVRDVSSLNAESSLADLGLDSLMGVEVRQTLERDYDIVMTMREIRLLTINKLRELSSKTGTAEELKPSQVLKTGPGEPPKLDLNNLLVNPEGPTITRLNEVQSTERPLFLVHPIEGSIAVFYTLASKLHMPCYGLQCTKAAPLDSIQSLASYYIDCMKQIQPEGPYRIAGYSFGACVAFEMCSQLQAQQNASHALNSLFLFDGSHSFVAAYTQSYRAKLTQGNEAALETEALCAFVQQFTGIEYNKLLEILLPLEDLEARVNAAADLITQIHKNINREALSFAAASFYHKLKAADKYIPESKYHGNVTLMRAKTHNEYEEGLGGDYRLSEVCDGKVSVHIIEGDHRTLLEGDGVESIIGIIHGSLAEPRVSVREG
T4 sequence (P49327 whole entry): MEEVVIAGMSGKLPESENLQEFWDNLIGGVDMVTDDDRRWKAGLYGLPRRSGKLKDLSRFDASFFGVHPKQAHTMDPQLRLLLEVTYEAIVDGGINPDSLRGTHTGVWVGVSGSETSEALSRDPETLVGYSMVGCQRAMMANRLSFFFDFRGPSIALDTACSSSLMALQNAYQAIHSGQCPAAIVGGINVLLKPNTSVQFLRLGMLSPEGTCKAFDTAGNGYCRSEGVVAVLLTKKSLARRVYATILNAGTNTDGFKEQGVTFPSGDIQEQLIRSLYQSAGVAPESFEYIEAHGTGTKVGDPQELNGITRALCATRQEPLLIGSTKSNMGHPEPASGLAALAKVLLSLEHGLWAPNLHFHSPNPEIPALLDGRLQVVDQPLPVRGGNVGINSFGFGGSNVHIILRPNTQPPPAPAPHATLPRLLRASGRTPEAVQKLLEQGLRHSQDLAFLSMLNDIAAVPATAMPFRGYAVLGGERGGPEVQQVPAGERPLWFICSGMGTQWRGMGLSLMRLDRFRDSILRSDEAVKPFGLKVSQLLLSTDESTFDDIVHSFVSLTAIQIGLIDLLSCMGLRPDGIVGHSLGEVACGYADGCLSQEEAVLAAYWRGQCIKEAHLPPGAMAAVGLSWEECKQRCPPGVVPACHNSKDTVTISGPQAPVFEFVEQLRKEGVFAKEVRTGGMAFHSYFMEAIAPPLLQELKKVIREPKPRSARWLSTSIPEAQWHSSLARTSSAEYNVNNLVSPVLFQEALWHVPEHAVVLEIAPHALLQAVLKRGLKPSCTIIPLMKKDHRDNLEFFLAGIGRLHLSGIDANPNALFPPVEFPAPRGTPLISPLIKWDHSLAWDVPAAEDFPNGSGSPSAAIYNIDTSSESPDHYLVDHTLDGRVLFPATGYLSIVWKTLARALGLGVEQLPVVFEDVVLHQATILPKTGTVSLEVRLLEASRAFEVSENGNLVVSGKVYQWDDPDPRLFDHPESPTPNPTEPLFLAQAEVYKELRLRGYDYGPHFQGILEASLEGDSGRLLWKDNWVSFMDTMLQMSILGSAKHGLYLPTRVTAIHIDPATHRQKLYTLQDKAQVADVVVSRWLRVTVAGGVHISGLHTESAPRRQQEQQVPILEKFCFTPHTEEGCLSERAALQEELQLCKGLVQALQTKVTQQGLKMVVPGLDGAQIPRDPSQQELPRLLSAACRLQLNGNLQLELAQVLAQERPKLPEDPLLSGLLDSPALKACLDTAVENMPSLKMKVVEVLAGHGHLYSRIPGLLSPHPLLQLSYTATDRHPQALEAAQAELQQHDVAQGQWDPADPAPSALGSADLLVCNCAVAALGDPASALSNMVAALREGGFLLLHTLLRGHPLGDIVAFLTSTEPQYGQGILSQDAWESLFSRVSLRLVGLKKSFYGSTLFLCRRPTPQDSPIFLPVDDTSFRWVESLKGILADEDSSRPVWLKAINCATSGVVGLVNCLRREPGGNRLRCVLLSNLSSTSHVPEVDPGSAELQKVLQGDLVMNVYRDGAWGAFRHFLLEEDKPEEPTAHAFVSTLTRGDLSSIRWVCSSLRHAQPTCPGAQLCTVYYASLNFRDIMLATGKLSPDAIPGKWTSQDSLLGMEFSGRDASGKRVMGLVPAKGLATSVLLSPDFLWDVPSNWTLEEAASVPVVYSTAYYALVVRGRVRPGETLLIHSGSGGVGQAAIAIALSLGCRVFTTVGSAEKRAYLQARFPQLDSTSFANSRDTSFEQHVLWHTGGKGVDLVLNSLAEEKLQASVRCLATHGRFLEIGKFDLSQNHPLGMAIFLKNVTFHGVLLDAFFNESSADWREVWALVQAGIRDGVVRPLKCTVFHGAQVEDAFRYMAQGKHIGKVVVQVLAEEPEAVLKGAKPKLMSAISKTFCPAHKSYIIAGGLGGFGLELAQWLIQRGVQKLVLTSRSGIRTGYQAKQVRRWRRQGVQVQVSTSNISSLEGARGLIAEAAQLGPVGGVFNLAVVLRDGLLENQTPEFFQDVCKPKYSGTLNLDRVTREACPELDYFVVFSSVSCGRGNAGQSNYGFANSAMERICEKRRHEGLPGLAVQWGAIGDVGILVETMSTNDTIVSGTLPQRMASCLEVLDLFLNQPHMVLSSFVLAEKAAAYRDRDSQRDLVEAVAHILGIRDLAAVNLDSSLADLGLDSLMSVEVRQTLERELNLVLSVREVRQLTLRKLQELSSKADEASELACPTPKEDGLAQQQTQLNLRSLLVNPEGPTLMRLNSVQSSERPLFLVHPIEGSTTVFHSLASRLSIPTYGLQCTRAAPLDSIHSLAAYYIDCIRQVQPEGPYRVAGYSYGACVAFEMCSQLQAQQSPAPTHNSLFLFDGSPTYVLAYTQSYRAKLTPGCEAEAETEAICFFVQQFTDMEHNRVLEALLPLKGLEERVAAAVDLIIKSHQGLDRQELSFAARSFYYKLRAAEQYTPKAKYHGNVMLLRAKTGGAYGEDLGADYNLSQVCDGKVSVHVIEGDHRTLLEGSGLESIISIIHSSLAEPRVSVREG
T3 sequence (P49327 whole entry): as above
T2 sequence (P12276 whole entry, the tested form may be a part): as the sequence (P12276 whole entry) above
T5 sequence (P49327 whole entry): as the sequence (P49327 whole entry) above

With `COc1cc(C2c3c(cc(OC)c(O)c3OC)CC(CO)C2COC2OCC(O)C(O)C2O)cc(OC)c1O` (stereo not drawn) [LA, lyoniresinol-3α-O-β-arabinopyranoside], on chicken liver FAS [1] (setting [8]), the “FAS Inhibitory Activity IC50” value is “did not show a significant inhibitory effect”. Further, the IC50 (usually the concentration at which inhibition is half-maximal) at chicken liver FAS [1] (setting [9]) is more than 362 µM.

As to `O=C(O[C@@H]1Cc2c(O)cc(O)cc2O[C@@H]1c1cc(O)c(O)c(O)c1)c1cc(O)c(O)c(O)c1` [EGCG, epigallocatechin gallate, reference compound], the “FAS Inhibitory Activity IC50” value on chicken liver FAS [1] (setting [8]) was determined as 24.8 ± 2.2 µg/mL.

Regarding `COc1cc(C2c3c(cc(OC)c(O)c3OC)CC(CO)C2COC2OC(C)C(O)C(O)C2O)cc(OC)c1O` (stereo not drawn) [LR, lyoniresinol-3α-O-β-rhamnopyranoside], the IC50 in test [2] is 56.3 µM; on chicken liver FAS [1] (setting [9]), 35.5 µM; at chicken liver FAS [1] (same value as 20.1 µg/mL given in molar unit, read-out: FAS inhibition IC50), 35.5 µM; in [5] (24 h treatment) it was 38.5 µM; in [6] (24 h treatment), 45 µM; in the test with SW620 cells (Homo sapiens, SW-620, 24 h, MTT), 22.1 µg/mL (≈ 39 µM). Besides, the IC50 amounted to 28.4 µg/mL (≈ 50.1 µM) with CaCo2 cells (Homo sapiens, Caco-2, 24 h, MTT) and 24.9 µg/mL (≈ 43.9 µM) in the test on LoVo cells (Homo sapiens, MTT). Further, the “Type of inhibition with respect to acetyl-CoA” value on chicken liver FAS [3] (acetyl-CoA variable substrate) is “competitively”. Also, at chicken liver FAS [3] (malonyl-CoA variable substrate), the “Type of inhibition with respect to malonyl-CoA” value was “noncompetitively”. Further, the “Type of inhibition with respect to NADPH” value in [4] was “competitively”. Moreover, the “Relative FAS activity” value in [5] (LR 60 µg/mL, 24 h) is “under 20%”; in [6] (LR 60 µg/mL, 24 h), “under 20%”; in test [7], “under 20%”. Moreover, the “Cell viability with exogenous palmitic acid (rescue)” value is on record as “restored significantly” in the test on SW620 cells (setting [10]); “restored significantly” in the test with CaCo2 cells (setting [10]); “restored significantly” with LoVo cells (LR 25 μg/mL + palmitic acid 100 μM, versus LR alone).

`CC1OC(OC2Cc3c(O)cc(O)cc3OC2c2ccc(O)cc2)C(O)C(O)C1O` (stereo not shown) [AR, afzelechin-3-rhamnopyranoside]: the “FAS Inhibitory Activity IC50” value at chicken liver FAS [1] (setting [8]) is “did not show a significant inhibitory effect”. Besides, the IC50 at chicken liver FAS [1] (setting [9]) is more than 476 µM.
